After the bases stand the sugars from the 5' end (letter, count) and the backbone: PS all phosphorothioate, else s phosphorothioate and o phosphodiester by linkage. Methylation of C is not given here. e = 2'-O-(2-methoxyethyl) (MOE); k = constrained ethyl (cEt); d = 2'-deoxy (DNA)
Target: IRF4
Conditions: ASO

Sequence	target mRNA inhibition (SK-MEL-28, 4 µM)	further results
GATCATCAACTTCTTA (sugars k3 d10 k3, PS)	47%	
GATCCTGAGAGTAAAC (sugars k3 d10 k3, PS)		target mRNA inhibition (MM.1R, 1 µM): 6%
GATGTATACATCACTG (sugars k3 d10 k3, PS)	70%	
GATGTGATAGCTGAGC (sugars kkdddddddddkdkdk, PS)		target mRNA inhibition (MM.1R, 1 µM): 34%
GATTATATACTGGTTG (sugars kkddddddddddkeke, PS)		target mRNA inhibition (MM.1R, 1 µM): 45%
GATTCATTTCCTTCAC (sugars k3 d10 k3, PS)	49%	
GCAAAACCCCTCAAGC (sugars k3 d10 k3, PS)	20%	
GCAATTGAAATGGAGC (sugars k3 d10 k3, PS)	24%	
GCACAAGCATAAAAGG (sugars k3 d10 k3, PS)	16%	
GCACAATTCTCTGAGA (sugars k3 d10 k3, PS)	34%	
GCACAGAACACCTGAT (sugars k3 d10 k3, PS)	56%	
GCACAGACATACCTAC (sugars k3 d10 k3, PS)	46%	
GCACTGCATGAAAGTG (sugars k3 d10 k3, PS)	40%	
GCACTGGCATCGAGAC (sugars k3 d10 k3, PS)	57%	
GCAGAGCAATTTACAT (sugars k3 d10 k3, PS)	66%	
GCAGAGGGACCCACAC (sugars k3 d10 k3, PS)	21%	
GCAGGTTTCATTTCAT (sugars k3 d10 k3, PS)	44%	
GCAGTGATGTCAGGTT (sugars k3 d10 k3, PS)		target mRNA inhibition (MM.1R, 1 µM): 39%
GCAGTGATGTCAGGTT (sugars kkdddddddddkdkdk, PS)		target mRNA inhibition (MM.1R, 0.074 µM): 15%; target mRNA inhibition (MM.1R, 0.222 µM): 32%; target mRNA inhibition (MM.1R, 0.666 µM): 58%; target mRNA inhibition (MM.1R, 1 µM): 53%; target mRNA inhibition (MM.1R, 2 µM): 79%
GCATAAAAGGTTCCTG (sugars k3 d10 k3, PS)	26%	

Sequence	target mRNA inhibition (SK-MEL-28, 4 µM)	further results
GCATAGCATTATCTAC (sugars k3 d10 k3, PS)	51%	
GCATCTAAGGCAAGCT (sugars k3 d10 k3, PS)	34%	
GCATTTTATCATCCGA (sugars e1 k2 d9 k2 e2, PS)		target mRNA inhibition (MM.1R, 0.074 µM): 18%; target mRNA inhibition (MM.1R, 0.222 µM): 34%; target mRNA inhibition (MM.1R, 0.666 µM): 57%; target mRNA inhibition (MM.1R, 1 µM): 61%; target mRNA inhibition (MM.1R, 2 µM): 83%
GCATTTTATCATCCGA (sugars k2 d9 e3 k2, PS)		target mRNA inhibition (MM.1R, 1 µM): 38%
GCATTTTATCATCCGA (sugars kkddddddddddkeke, PS)		target mRNA inhibition (MM.1R, 1 µM): 39%
GCATTTTATCATCCGA (sugars kkdddddddddekeke, PS)		target mRNA inhibition (MM.1R, 1 µM): 44%
GCATTTTATCATCCGA (sugars kkdddddddddkdkdk, PS)		target mRNA inhibition (MM.1R, 1 µM): 16%
GCATTTTCCAGAAAAT (sugars k3 d10 k3, PS)	64%	target mRNA inhibition (SK-MEL-28, 0.185 µM): 13%; target mRNA inhibition (SK-MEL-28, 5 µM): 74%; target mRNA inhibition (SK-MEL-28, 15 µM): 89%
GCCAAGACCAGCTCTT (sugars k3 d10 k3, PS)	30%	
GCCAAGAGGTGCGAGT (sugars k3 d10 k3, PS)	35%	
GCCAAGTAATTTTAAG (sugars k3 d10 k3, PS)	35%	
GCCAATTCCACTTTAT (sugars k3 d10 k3, PS)	64%	
GCCACAACTCTCGCCT (sugars k3 d10 k3, PS)	25%	
GCCATTCGAGGTGATT (sugars k3 d10 k3, PS)	56%	
GCCATTGTCCTCTGGG (sugars k3 d10 k3, PS)	25%	
GCCCACATAATCCAGT (sugars k3 d10 k3, PS)	22%	
GCCCGGAGGAAGGGCG (sugars k3 d10 k3, PS)	-6%	
GCCGATCATCAACTTC (sugars k3 d10 k3, PS)		target mRNA inhibition (MM.1R, 1 µM): 26%
GCCGCTGTCGATCTGG (sugars k3 d10 k3, PS)	24%	
GCCTTAATGGTGATTT (sugars k3 d10 k3, PS)	26%	
